Experimental data as given in patent publication US9113629B2, “4-amino-6-(4-substituted-phenyl)-picolinates and 6-amino-2-(4-substituted-phenyl)-pyrimidine-4-carboxylates and their use as herbicides” (DOW AGROSCIENCES LLC, priority 2013, dated 2015).

Columns and labels:
Experiment in all cases: Post-emergent Test III, herbicidal activity in wheat and barley
Assay type in all cases: in vivo
[1] = tested on: CIRAR: Canada thistle (Cirsium arvense); conditions: Table 8, 21 d; for pest or weed control at 35 g/ha / pest or weed control at 70 g/ha / pest or weed control at 140 g/ha: Cirsium arvense, post-emergence, 504 h, post-emergent, read-out: Visual Growth Reduction (%) 21 Days After Application CIRAR; for pest or weed control at 35 g/ha: 35 g ai/ha; for pest or weed control at 70 g/ha: 70 g ai/ha; for GR50 CIRAR: dose for 50 percent growth reduction; for GR50 CIRAR / GR80 CIRAR: probit analysis; for GR80 CIRAR: dose for 80 percent growth reduction; for pest or weed control at 140 g/ha: 140 g ai/ha
Summary of the method: (§1)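 GR20, GR50, GR80 and GR90 come from probit analysis of visual injury scores (0 = none, 100 = complete kill) taken 21 d after treatment. Foliar application was by track sprayer delivering 187 L/ha at five rates, from high down to 1/16×, onto greenhouse plants at the 2–3 leaf stage, with solvent-blank controls.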

[2] = tested on: GALAP: cleavers (Galium aparine); conditions: Table 8, 21 d; for pest or weed control at 35 g/ha / pest or weed control at 70 g/ha / pest or weed control at 140 g/ha: Galium aparine, post-emergence, 504 h, post-emergent, read-out: Visual Growth Reduction (%) 21 Days After Application GALAP; for pest or weed control at 35 g/ha: 35 g ai/ha; for pest or weed control at 70 g/ha: 70 g ai/ha; for GR50 GALAP: dose for 50 percent growth reduction; for GR50 GALAP / GR80 GALAP: probit analysis; for GR80 GALAP: dose for 80 percent growth reduction; for pest or weed control at 140 g/ha: 140 g ai/ha
Summary of the method: as §1

[3] = tested on: SASKR: Russian thistle (Salsola iberica); conditions: Table 8, 21 d; for pest or weed control at 35 g/ha / pest or weed control at 70 g/ha / pest or weed control at 140 g/ha: Salsola tragus, post-emergence, 504 h, post-emergent, read-out: Visual Growth Reduction (%) 21 Days After Application SASKR; for pest or weed control at 35 g/ha: 35 g ai/ha; for pest or weed control at 70 g/ha: 70 g ai/ha; for GR50 SASKR: dose for 50 percent growth reduction; for GR50 SASKR / GR80 SASKR: probit analysis; for GR80 SASKR: dose for 80 percent growth reduction; for pest or weed control at 140 g/ha: 140 g ai/ha
Summary of the method: as §1

[4] = tested on: VIOSS: wild pansy (Viola tricolor), field violet (Viola arvensis); conditions: Table 8, 21 d; for GR50 VIOSS: dose for 50 percent growth reduction; for GR50 VIOSS / GR80 VIOSS: probit analysis; for GR80 VIOSS: dose for 80 percent growth reduction; for pest or weed control at 35 g/ha / pest or weed control at 70 g/ha / pest or weed control at 140 g/ha: Viola tricolor, post-emergence, 504 h, post-emergent, read-out: Visual Growth Reduction (%) 21 Days After Application VIOSS; for pest or weed control at 35 g/ha: 35 g ai/ha; for pest or weed control at 70 g/ha: 70 g ai/ha; for pest or weed control at 140 g/ha: 140 g ai/ha
Summary of the method: as §1

| SMILES | pest or weed control at 35 g/ha [1] [%] | pest or weed control at 70 g/ha [1] [%] | GR50 CIRAR [1] [g ai/ha] | GR80 CIRAR [1] [g ai/ha] | pest or weed control at 35 g/ha [2] [%] | pest or weed control at 70 g/ha [2] [%] | GR50 GALAP [2] [g ai/ha] | GR80 GALAP [2] [g ai/ha] | pest or weed control at 35 g/ha [3] [%] | pest or weed control at 70 g/ha [3] [%] | GR50 SASKR [3] [g ai/ha] | GR80 SASKR [3] [g ai/ha] | GR50 VIOSS [4] [g ai/ha] | GR80 VIOSS [4] [g ai/ha] | pest or weed control at 35 g/ha [4] [%] | pest or weed control at 70 g/ha [4] [%] | pest or weed control at 140 g/ha [1] [%] | pest or weed control at 140 g/ha [2] [%] | pest or weed control at 140 g/ha [3] [%] | pest or weed control at 140 g/ha [4] [%] |
| --- | --- | --- | --- | --- | --- | --- | --- | --- | --- | --- | --- | --- | --- | --- | --- | --- | --- | --- | --- | --- |
| COC(=O)c1nc(-c2ccc(I)c(F)c2)c(C)c(N)c1Cl [Compound 79, Methyl 4-amino-3-chloro-6-(3-fluoro-4-iodophenyl)-5-methylpicolinate] | 95 to 100 | 95 to 100 | 1 | 5 | 95 to 100 | 95 to 100 | 4 | 6 | 75 to 84 | 85 to 94 | 11 | 43 | >140 | >140 | 0 to 29 | 0 to 29 |  |  |  |  |
| Nc1c(Cl)c(C(=O)O)nc(-c2ccc(I)c(F)c2)c1Cl [Compound 145, 4-Amino-3,5-dichloro-6-(3-fluoro-4-iodophenyl)picolinic acid] | 95 to 100 | 85 to 94 | 2 | 7 | 45 to 59 | 75 to 84 | 18 | 54 | 60 to 74 | 75 to 84 |  | 79 | >140 | >140 | 0 to 29 | 0 to 29 | 95 to 100 | 95 to 100 | 85 to 94 | 30 to 44 |
| Nc1cc(-c2cc(F)c(Br)cc2F)nc(C(=O)O)c1Cl [Compound 3] | 60 to 74 | 75 to 84 | 18 | 53 | 95 to 100 | 95 to 100 | 5 | 7 | 75 to 84 | 85 to 94 | 2 | 28 | 4 | 7 | 95 to 100 | 95 to 100 |  |  |  |  |
| Nc1cc(-c2ccc(I)cc2F)nc(C(=O)O)c1Cl [Compound 124] | 60 to 74 | 75 to 84 | 24 | 91 | 85 to 94 | 95 to 100 | 6 | 21 | 60 to 74 | 85 to 94 | 12 | 53 | 24 | 49 | 60 to 74 | 95 to 100 |  |  |  |  |
| COC(=O)c1nc(-c2ccc(Br)c(F)c2)nc(N)c1OC [Compound 171, Methyl 6-amino-2-(4-bromo-3-fluorophenyl)-5-methoxypyrimidine-4-carboxylate] | 60 to 74 | 60 to 74 | 17 | 80 | 85 to 94 | 95 to 100 |  | 23 | 60 to 74 | 75 to 84 | 21 | 67 | 5 | 10 | 95 to 100 | 95 to 100 |  |  |  |  |
| COC(=O)c1nc(-c2ccc(C#N)c(F)c2)c(F)c(N)c1Cl [Compound 135, methyl 4-amino-3-chloro-6-(4-cyano-3-fluorophenyl)-5-fluoropicolinate] | 85 to 94 | 85 to 94 | 1 | 13 | 60 to 74 | 95 to 100 | 12 | 38 | 60 to 74 | 60 to 74 | 3 | >140 | 23 | >140 | 60 to 74 | 60 to 74 | 85 to 94 | 95 to 100 | 75 to 84 | 75 to 84 |
| COC(=O)c1nc(-c2ccc(I)c(F)c2)nc(N)c1OC [Compound 27, Methyl 6-amino-2-(3-fluoro-4-iodophenyl)-5-methoxypyrimidine-4-carboxylate] | 75 to 84 | 75 to 84 | 18 | 70 | 85 to 94 | 85 to 94 | 5 | 25 | 60 to 74 | 60 to 74 | 22 | 116 | 8 | 27 | 75 to 84 | 95 to 100 |  |  |  |  |
| Nc1c(Cl)c(C(=O)O)nc(-c2ccc(Br)c(F)c2)c1Cl [Compound 43, 4-Amino-6-(4-bromo-3-fluorophenyl)-3,5-dichloropicolinic acid] | 85 to 94 | 85 to 94 | 0 | 13 | 95 to 100 | 95 to 100 | 2 | 6 | 75 to 84 | 75 to 84 | 3 | 61 | 37 | >140 | 45 to 59 | 60 to 74 |  |  |  |  |
